Data on 35 molecules can be found in ChEMBL document CHEMBL1148297, “Synthesis and biological evaluation of analogues of 7-chloro-4,5-dihydro-4- oxo-8-(1,2,4-triazol-4-yl)-1,2,4-triazolo[1,5-a]quinoxaline-2-carboxylic acid (TQX-173) as novel selective AMPA receptor antagonists” (J Med Chem, 2004).

The species entered for test [1] is Rattus norvegicus. Kind of test: Concentration that inhibits 50% S-AMPA stimulated (50 uM) [3H]norepinephrine release from rat hippocampal synaptosomes. The format is functional. The note with it: Hippocampus.
Test [2] is filed under the species Mus musculus. Briefly: Concentration necessary for 50% inhibition of depolarization induced by 5 uM NMDA in mouse cortical wedge preparation. Format: functional. The note with it: for pIC50: Mus musculus, read-out: IC50.
Test [3] is described as follows: Ratio of IC50 of KA low-affinity receptor site to KA high-affinity receptor site.
The species entered for test [4] is Mus musculus. Kind of test: Concentration necessary for 50% inhibition of depolarization induced by 5 uM S-AMPA in mouse cortical wedge preparation. Format: functional.
Test [5] has as its target Glutamate receptor ionotropic, AMPA (Rattus norvegicus, UniProt P19490+P19491+P19492+P19493).
Description: Binding affinity towards ionotropic glutamate receptor (high-affinity) of rat cortical synaptic membranes by using [3H]AMPA as radioligand
Test [6] deals with Glutamate receptor ionotropic, NMDA 1 (Rattus norvegicus, UniProt P35439). Briefly: Binding affinity towards N-methyl-D-aspartate glutamate receptor 1 (high affinity) of rat cortical synaptic membranes by using [3H]Gly as radioligand.
Test [7] deals with Glutamate receptor ionotropic, kainate. Kind of test: Inhibition concentration towards high-affinity ionotropic glutamate receptor kainate of rat cortical membranes by using [3H]KA as radioligand.
Test [8] shares this target. Briefly: Inhibition concentration towards low-affinity Ionotropic glutamate receptor kainate of rat cortical membranes by using [3H]-KA as radioligand.
Test [9] has as its target Glutamate receptor ionotropic, NMDA 1 (Rattus norvegicus) (UniProt P35439). Briefly: Percent inhibition of compound at 100 uM towards N-methyl-D-aspartate glutamate receptor 1 (high affinity) of rat cortical synaptic membranes by using [3H]-Gly as radioligand. The format is cell membranes. As to conditions: Membrane; call rule not given here.
The species entered for test [10] is Rattus norvegicus. Briefly: Concentration giving 50% inhibition of stimulated [3H](+)-MK-801 binding in rat cortical membranes incubated with 10 uM glutamate and 0.1 uM glycine.
Test [11] addresses Glutamate receptor ionotropic, kainate (Rattus norvegicus) (UniProt P22756+Q01812+P42260+P42264+Q63273). Briefly: Percent inhibition of compound at 100 uM towards high-affinity Ionotropic glutamate receptor kainate of rat cortical membranes by using [3H]KA as radioligand. The format is cell membranes. The note with it: Membrane.

Molecules are shown by their SMILES. pIC50, pKi: −log10 of the molar value.

Turning to `O=C(O)c1ccn(-c2cc3c(cc2C(F)(F)F)nc(O)c2nc(C(=O)O)nn23)c1`, the figures for the negative logarithm of the IC50 (pIC50) in the test listed under Rattus norvegicus [1], in the test listed under Mus musculus [2] and in the test listed under Mus musculus [4] were 5.12, 4.22 and 5.89, respectively. Moreover, the Ratio in test [3] was 0.48.
`CCOC(=O)c1nc2c(=O)[nH]c3cc([N+](=O)[O-])c(NC(C)=O)cc3n2n1`: the negative logarithm of the Ki (pKi) in [5] was 5.19; in test [6], 4.07. For the same molecule, the pIC50 in [7] was 4.39.
`CCOC(=O)c1nc2c(=O)[nH]c3cc([N+](=O)[O-])c(-n4cccc4)cc3n2n1`: the negative logarithm of the Ki (pKi) in [5] was 5.85; in [6], 4.08. The molecule also showed a pIC50 in test [7] of 4.39.
Take `O=Cc1ccn(-c2cc3c(cc2C(F)(F)F)[nH]c(=O)c2nc(C(=O)O)nn23)c1`: the results for the pKi in [5] and in test [6] were 6.92 and 5.59, respectively. Also, the pIC50 is 6.00 in [8] and 5.25 in test [7].
The corresponding values for `O=C(O)c1nc2c(=O)[nH]c3cc([N+](=O)[O-])c(-n4cccc4)cc3n2n1` are 7.06, 4.19, 5.77 and 5.29.
Consider `O=C(O)c1ccn(-c2cc3c(cc2C(F)(F)F)[nH]c(=O)c2nc(C(=O)O)nn23)c1`, for which the negative logarithm of the Ki (pKi) is 7.43 in test [5] and 4.46 in test [6]. For the same molecule, the negative-log IC50 (pIC50) is 5.59 in [8] and 5.27 in test [7].
In test [5], `CCOC(=O)c1nc2c(O)nc3cc(C(F)(F)F)c(-n4cnnc4)cc3n2n1` showed a pKi of 6.70. In addition, the pIC50 in the test listed under Mus musculus [2] is below 3.82; in [7], 4.04; in the test listed under Mus musculus [4], 4.92. In test [9], the inhibition came to 42%.
As to `O=C(O)c1nc2c(O)nc3cc(C(F)(F)F)c(-n4cccc4)cc3n2n1`, the figures for the pKi in [5] and in [6] were 6.55 and 5.08, respectively. For the same molecule, the pIC50 in the test listed under Rattus norvegicus [10] is 4.90; in the test listed under Rattus norvegicus [1], 4.96; in the test listed under Mus musculus [2], 4.10; in test [7] it was 4.74; in the test filed under Mus musculus [4] it was 5.82.
`NS(=O)(=O)c1cccc2c1c([N+](=O)[O-])cc1nc(O)c(O)nc12` [NBQX] gave a pIC50 in the test filed under Rattus norvegicus [1] of 5.40. Further, the IC50 entry in the test listed under Mus musculus [2] is given as “Not Active”.
For the molecule `Nc1cc2c(cc1[N+](=O)[O-])[nH]c(=O)c1nc(C(=O)O)nn12`, the pKi in test [5] is 6.15; in [6], 5.57. Besides, in test [7], the negative-log IC50 (pIC50) is 4.70.
As for `CCOC(=O)c1nc2c(O)nc3cc(C(F)(F)F)c(-n4cccc4)cc3n2n1`, the negative logarithm of the Ki (pKi) in [5] was 5.66; in test [6], 4.12. The molecule further had an inhibition in test [11] of 5%.
For `O=C(O)c1nc2c(O)nc3cc([N+](=O)[O-])c(-n4cccc4)cc3n2n1`, the figures for the negative-log IC50 (pIC50) in the test listed under Rattus norvegicus [1], in the test filed under Mus musculus [2] and in the test listed under Mus musculus [4] were 4.72, 4.30 and 6.00, respectively. Further, the Ratio in [3] was 0.33.
As for `O=Cc1ccn(-c2cc3c(cc2C(F)(F)F)nc(O)c2nc(C(=O)O)nn23)c1`, the negative logarithm of the IC50 (pIC50) in the test filed under Rattus norvegicus [10] is 4.96; in the test listed under Rattus norvegicus [1], 5.09; in the test filed under Mus musculus [2], 4.30; in the test listed under Mus musculus [4], 6.00. The Ratio in test [3] is 0.18.
For `Nc1cc2c(cc1C(F)(F)F)nc(O)c1nc(C(=O)O)nn12`, the negative logarithm of the Ki (pKi) in [5] is 5.92; in test [6], 5.82. The same molecule showed a pIC50 in [7] of 4.62.
Consider `CCOC(=O)c1nc2c(=O)[nH]c3cc(C(F)(F)F)c([N+](=O)[O-])cc3n2n1`, for which the negative-log Ki (pKi) is 5.05 in test [5] and 4.21 in test [6].
On to `CCOC(=O)c1nc2c(O)nc3cc([N+](=O)[O-])c(N)cc3n2n1`, for which the negative logarithm of the Ki (pKi) in [5] was 5.92; in test [6] it was 5.43. In test [7], this molecule had a pIC50 of 4.16.
As to `CCOC(=O)c1nc2c(O)nc3cc(C(F)(F)F)c(-n4ccc(C=O)c4)cc3n2n1`, the pKi in test [5] was 6.43; in test [6] it was 4.15. For the same molecule, the IC50 result in the test filed under Mus musculus [2] is listed as “Not Active”. Moreover, the negative-log IC50 (pIC50) was 4.51 in test [7] and 5.11 in the test filed under Mus musculus [4].
On to `O=C(O)c1nc2c(=O)[nH]c3cc(C(F)(F)F)c([N+](=O)[O-])cc3n2n1`, for which the pKi in test [5] was 5.63; in test [6] it was 5.36. The same molecule had a pIC50 in test [7] of 4.37.
The molecule `O=C(O)c1cc(O)c2c(Cl)cc(Cl)cc2n1` showed a negative-log Ki (pKi) in test [6] of 7.05.
For the molecule `O=C(O)c1nc2c(=O)[nH]c3cc(Cl)c(-n4cnnc4)cc3n2n1` [TQX-173], the pIC50 in the test listed under Rattus norvegicus [10] is 4.17; in the test filed under Rattus norvegicus [1], 4.55; in [7], 4.95.
As to `O=C(O)c1nc2c(O)nc3cc(C(F)(F)F)c(-n4cnnc4)cc3n2n1`, the figures for the pIC50 in the test filed under Rattus norvegicus [1], in the test filed under Mus musculus [2] and in the test listed under Mus musculus [4] were 5.24, 4.22 and 6.10, respectively. For the same molecule, in test [3], the Ratio was 0.19.
For `O=C(O)c1nc2c(=O)[nH]c3cc(C(F)(F)F)c(-n4cnnc4)cc3n2n1`, the pKi in test [5] was 7.02; in test [6] it was 5.44. The figures for the pIC50 in test [8] and in test [7] were 5.74 and 5.02, respectively.
On to `CCOC(=O)c1nc2c(O)nc3cc([N+](=O)[O-])c(-n4ccc(C(=O)O)c4)cc3n2n1`, for which, in test [5], the negative-log Ki (pKi) was 7.17. Besides, in test [9], the inhibition turned out to be 16%.
`O=Cc1ccn(-c2cc3c(cc2[N+](=O)[O-])nc(O)c2nc(C(=O)O)nn23)c1` gave a negative-log Ki (pKi) in test [5] of 6.74. Moreover, the negative logarithm of the IC50 (pIC50) in the test listed under Rattus norvegicus [1] was 4.92; in the test filed under Mus musculus [2] it was 4.28; in test [8], 5.92; in test [7], 5.09; in the test filed under Mus musculus [4] it was 5.51. Besides, the Ratio in [3] came out at 0.15. In addition, the inhibition in test [9] amounted to 43%.
For `CCOC(=O)c1nc2c(O)nc3cc(Cl)c(-n4cnnc4)cc3n2n1`, the inhibition in [9] came to 15%.
Turning to `CCOC(=O)c1nc2c(O)nc3cc(C(F)(F)F)c(N)cc3n2n1`, the inhibition in test [11] came to 45%.
Molecule `CCOC(=O)c1nc2c(O)nc3cc(C(F)(F)F)c(-n4ccc(C(=O)O)c4)cc3n2n1` had a pKi in [5] of 6.46. For the same molecule, the inhibition in test [9] turned out to be 33%. The molecule also showed a pIC50 in test [7] of 4.89.
Take `CCOC(=O)c1nc2c(=O)[nH]c3cc(C(F)(F)F)c(N4C(=O)C=C(C=O)C4=O)cc3n2n1`: the pKi in test [5] was 4.89; in [6], 4.96. Also, the pIC50 in test [7] was 4.38.
Turning to `CC(=O)Nc1cc2c(cc1[N+](=O)[O-])nc(O)c1nc(C(=O)O)nn12`, the negative-log Ki (pKi) in [5] was 5.94; in test [6] it was 4.20. Moreover, the negative logarithm of the IC50 (pIC50) in test [7] is 4.65.
The molecule `CCOC(=O)c1nc2c(O)nc3cc([N+](=O)[O-])c(-n4ccc(C=O)c4)cc3n2n1` showed a pKi in [5] of 6.19. This molecule also yielded an inhibition in test [9] of 28%. This molecule also showed a negative-log IC50 (pIC50) in [7] of 4.35.
On the same counts, the results for `O=C(O)c1ccn(-c2cc3c(cc2[N+](=O)[O-])nc(O)c2nc(C(=O)O)nn23)c1` are 7.72, 7% and 4.77.
For `CCOC(=O)c1nc2c(O)nc3cc(C(F)(F)F)c(-n4ccnc4)cc3n2n1`, the negative logarithm of the Ki (pKi) was 6.46 in test [5] and 4.27 in test [6]. In [7], the pIC50 is 4.15.
As for `CCOC(=O)c1nc2c(O)nc3cc(C(F)(F)F)c([N+](=O)[O-])cc3n2n1`, the inhibition in [11] was 24%.
Consider `O=C(O)c1nc2c(O)nc3cc(C(F)(F)F)c(-n4ccnc4)cc3n2n1`, for which the pKi in [5] is 6.92; in test [6], 4.47. This molecule gave a pIC50 in test [7] of 4.89.
For the molecule `CCOC(=O)c1nc2c(=O)[nH]c3cc(C(F)(F)F)c(N)cc3n2n1`, the negative-log Ki (pKi) in test [5] and in test [6] was 5.26 each time.
